Patent US7632819B1, “Methods and compositions for inhibiting PKC delta cleavage for treatment and prevention of neurodegeneration and apoptosis” (Iowa State University Research Foundation, Inc., priority 2004, dated 2009)
Where a SMILES comes first, the peptide text is derived from it. The star is where a group is joined. Cbz = O=C(OCc1ccccc1)*; CH2F = FC*

Legend:
[1] = test system: primary mesencephalic dopaminergic neuronal cells; test: TH immunostaining, TH+ cell count and neuronal process length in primary mesencephalic cultures; type: cell-based, mouse
Text: (§1) Chemicals. Protease cocktail, ATP, protein-A-sepharose, protein-G-sepharose and anti-â-actin antibody were obtained from Sigma-Aldrich (St. Louis, Mo.); mouse tyrosine hydroxylase antibody was purchased from Chemicon (Temecula, Calif.); the rabbit polyclonal antibody for tyrosine hydroxylase was obtained from Calbiochem Bioscience, Inc. (King of Prussia, Pa.); rabbit PKCδ antibody was purchased from Santa Cruz Biotechnology, Inc. (Santa Cruz, Calif.); anti-rabbit and anti-mouse secondary antibodies and the ECL chemiluminescence kit were purchased from Amersham Pharmacia Biotech. (Piscataway, N.J.). Alexa 488 conjugated antirabbit/mouse, Cy3 conjugated anti-rabbit/mouse antibody and Hoechst 33342 were purchased from Molecular Probes, Inc. (Eugene, Oreg.). [ã-32P]ATP was purchased from Perkin Elmer Life Science Products (Boston, Mass.). The Bradford protein assay kit was purchased from Bio-Rad Laboratories (Hercules, Calif.). RPMI, fetal bovine serum, -glutamine, penicillin, and streptomycin were purchased from Invitrogen (Gaithersburg, Md.). Quantity One 4.2.0 software was purchased from Bio-Rad. Design and synthesis of z-DIPD-fmk (SEQ ID NO:5). To develop a cell permeable peptide inhibitor to specifically block PKCδ cleavage, we designed the tetrapeptide Asp-Ile-Pro-Asp (DIPD) (SEQ ID NO:5) corresponding to position 324-327 in rat PKCδ cDNA representing the caspase-3 cleavage site. Since this peptide is directed against the caspase-3 cleavage site of PKCδ, it should prevent the proteolytic cleavage and activation of PKCδ mediated by caspase-3. The custom synthesis of the tetrapeptide Z-Asp(OMe)-Ile-Pro-Asp(OMe)-FMK (SEQ ID NO:5) was performed at MP Biomedicals (Irvine, Calif.), a quality company that specializes in developing cell permeable peptide inhibitors directed against apoptosis cell signaling molecules. Briefly, the synthesis was performed with the reaction of Boc-D(OMe)-OH with MBFM (Magnesium benzyl fluoromalonate) to produce Beta-Keto fluoroester, followed by hydrogenation with Pd/c to produce Boc-D(OMe)FK, which was converted into Tfa salt using trifluoroacetic acid. Coupling of Tfa salt with Z-D(OMe)—I—P—OH in DMF with HOBT, HBTU DIEA and workup produced a crude product which was purified by column chromatography over silica gel. Elution with EtOAC:MeOH 95:5 gave pure fractions which were mixed and dried. Crystallization with EtOAC/Hexane, filtration and drying produced the pure product. Animals. Time-pregnant C57/bL mice were housed under standard conditions: constant temperature (22±1° C.), humidity (relative, 30%) and a 12-h light/dark cycle with free access to food and water. The animals and protocol procedures were approved and supervised by the Committee on Animal Care (COAC) at Iowa State University. Cell culture. Rat mesencephalic dopaminergic neuronal (N27) cells were cultured as described earlier (Anantharam et al., 2002). Briefly, cells were grown in RPMI 1640 medium containing 10% fetal bovine serum, 2 mM L-glutamine, 50 units of penicillin, and 50 μg/ml streptomycin. Cells were maintained in a humidified atmosphere of 5% CO2 at 37° C. Primary mesencephalic neuronal cultures were prepared from the ventral mesencephalon of gestational 18-day-old mice embryos as described previously (Yang et al., 2004). Mesencephalic tissues were dissected and maintained in ice-cold Ca2+-free HBSS and then dissociated in HBSS solution containing trypsin-EDTA (0.25%) for 20 min at 37° C. The dissociated cells were then plated at equal density (0.5×10^6 cells) in 30-mm-diameter tissue culture wells pre-coated with poly-lysine (1 mg/ml). Cultures were maintained in a chemically defined, serum-free medium consisting of neurobasal medium fortified with B-27 supplements, L-glutamine (500 μM), penicillin (100 IU/ml), and streptomycin (100 μg/ml) (Life Technologies). The cells were maintained in a humidified CO2 incubator (5% CO2, 37° C.) for 24 hr and then treated with cytosine arabinoside (10 μM) for 24 hr to inhibit glial cell proliferation. […]

caspase-3 = target: T1, caspase-3 (Rattus norvegicus, UniProt P55213); test: Caspase-3 activity assay with fluorogenic substrate Ac-DEVD-AFC in treated N27 cells; type: cell-based
T1 construct: N27 cells were exposed to either MPP^+ or 6-OHDA in the absence or presence of z-DIPD-fmk; endogenous in cells; host or cells: N27 rat mesencephalic dopaminergic neuronal cells
T1 sequence (P55213 29-175 limits assumed): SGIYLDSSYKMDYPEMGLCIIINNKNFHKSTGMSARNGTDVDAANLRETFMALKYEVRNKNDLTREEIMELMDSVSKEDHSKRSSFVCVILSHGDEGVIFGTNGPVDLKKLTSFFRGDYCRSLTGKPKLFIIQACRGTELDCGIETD
T1 sequence (P55213 176-277 limits assumed): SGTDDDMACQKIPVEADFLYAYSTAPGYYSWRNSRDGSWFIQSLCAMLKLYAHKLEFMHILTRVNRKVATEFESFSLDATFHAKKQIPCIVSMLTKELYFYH
Text: as §1, with “C.” for “C. The dissociated cells were then plated at equal density (0.5×10^6 cells) in 30-mm-diameter tissue culture wells pre-coated with poly-lysine (1 mg/ml). Cultures were maintained in a chemically defined, serum-free medium consisting of neurobasal medium fortified with B-27 supplements, L-glutamine (500 μM), penicillin (100 IU/ml), and streptomycin (100 μg/ml) (Life Technologies). The cells were maintained in a humidified CO2 incubator (5% CO2, 37° C.) for 24 hr and then treated with cytosine arabinoside (10 μM) for 24 hr to inhibit glial cell proliferation.”

PKCδ = test: Western blot of PKCδ proteolytic cleavage in N27 cells; type: cell-based, rat
Text: Chemicals. Protease cocktail, ATP, protein-A-sepharose, protein-G-sepharose and anti-â-actin antibody were obtained from Sigma-Aldrich (St. Louis, Mo.); mouse tyrosine hydroxylase antibody was purchased from Chemicon (Temecula, Calif.); the rabbit polyclonal antibody for tyrosine hydroxylase was obtained from Calbiochem Bioscience, Inc. (King of Prussia, Pa.); rabbit PKCδ antibody was purchased from Santa Cruz Biotechnology, Inc. (Santa Cruz, Calif.); anti-rabbit and anti-mouse secondary antibodies and the ECL chemiluminescence kit were purchased from Amersham Pharmacia Biotech. (Piscataway, N.J.). Alexa 488 conjugated antirabbit/mouse, Cy3 conjugated anti-rabbit/mouse antibody and Hoechst 33342 were purchased from Molecular Probes, Inc. (Eugene, Oreg.). [ã-32P]ATP was purchased from Perkin Elmer Life Science Products (Boston, Mass.). The Bradford protein assay kit was purchased from Bio-Rad Laboratories (Hercules, Calif.). RPMI, fetal bovine serum, -glutamine, penicillin, and streptomycin were purchased from Invitrogen (Gaithersburg, Md.). Quantity One 4.2.0 software was purchased from Bio-Rad. Design and synthesis of z-DIPD-fmk (SEQ ID NO:5). To develop a cell permeable peptide inhibitor to specifically block PKCδ cleavage, we designed the tetrapeptide Asp-Ile-Pro-Asp (DIPD) (SEQ ID NO:5) corresponding to position 324-327 in rat PKCδ cDNA representing the caspase-3 cleavage site. Since this peptide is directed against the caspase-3 cleavage site of PKCδ, it should prevent the proteolytic cleavage and activation of PKCδ mediated by caspase-3. The custom synthesis of the tetrapeptide Z-Asp(OMe)-Ile-Pro-Asp(OMe)-FMK (SEQ ID NO:5) was performed at MP Biomedicals (Irvine, Calif.), a quality company that specializes in developing cell permeable peptide inhibitors directed against apoptosis cell signaling molecules. […]

[2] = 10 μM MPP+ 24 hr, inhibitor 10 and 50 μM

## CC[C@H](C)[C@H](NC(=O)[C@H](CC(=O)OC)NC(=O)OCc1ccccc1)C(=O)N1CCC[C@H]1C(=O)N[C@@H](CC(=O)OC)C(=O)CF [z-DIPD-fmk, Z-Asp(OMe)-Ile-Pro-Asp(OMe)-FMK] (Cbz-D(OMe)IPD(OMe)-CH2F)
[1]; [2]
  TH+ cell counts, protection against MPP+ neurotoxicity: nearly complete protection
  average lengths of TH+ neuronal processes versus MPP+ only: significantly longer
[1]; 30 μM 6-OHDA 24 hr, inhibitor 10 and 50 μM
  TH+ cell counts, protection against 6-OHDA neurotoxicity: nearly complete protection
[1]; mouse primary mesencephalic cultures
  rescue of tyrosine hydroxylase positive neurons from MPP+- and 6-OHDA-induced toxicity: completely rescued
[1]; primary nigral cultures, 30 μM 6-OHDA 24 hr, inhibitor 10 and 50 μM
  effect on 6-OHDA-induced degeneration of TH+ neurons and their processes: significantly blocked
[1]; primary nigral dopaminergic neurons, 10 μM MPP+ 24 hr, inhibitor 10 and 50 μM
  effect on MPP+-induced degeneration of TH+ neurons and their processes: significantly blocked
caspase-3; 100 μM 6-OHDA 24 hr, inhibitor 50 μM
  effect on 6-OHDA-induced caspase-3 activation: completely blocked
caspase-3; 300 μM MPP+ 36 hr, inhibitor 50 μM
  effect on MPP+-induced caspase-3 activation: completely blocked
caspase-3; co-treatment, concentration not given
  effect on MPP+- and 6-OHDA-induced caspase-3 activation: dose-dependently attenuated
PKCδ; N27 cells, 100 μM 6-OHDA 24 hr, inhibitor 50 μM
  effect on 6-OHDA-induced proteolytic cleavage of PKCδ: significantly attenuated
PKCδ; N27 cells, 300 μM MPP+ 36 hr, inhibitor 50 μM
  effect on MPP+-induced proteolytic cleavage of PKCδ: almost completely attenuated
PKCδ; concentration not given
  effect on PKCδ cleavage and proteolytic activation in PD models: effectively blocked
